Assays:
[1] = test system: wild-type ERα and ERα LBD mutants Y537S, Y537N, Y537C, D538G; test: ERE-luciferase reporter assay in Caov2 and SKBR3 cells (statements on all receptors); assay type: cell-based
Experimental: ExSite mutagenesis was performed using the corresponding primers as summarized in Table 1 below on a pENTR2B ERα WT construct using Pfu ultra taq polymerase. The primers were PNK phosphorylated. Following PCR amplification, the products were digested with DpnI at 37° C. for 1 hr, followed by overnight ligation at 16° C. Ligated products were transformed into DH5α bacterial cells and grown on kanamycin resistant plates. The pENTR clones were verified by sequencing and then swapped into the pcDNA-DEST vector using the Gateway system (Invitrogen) for expression analysis.
Caov2 ovarian carcinoma cells were grown in RPMI-1640 media (Gibco) supplemented with 8% Fetal Bovine Serum (FBS), Sodium Pyruvate (NaPyr) and non-essential amino acids (NEAA) and passaged every 2-3 days. SKBR3 breast adenocarcinoma cells were grown in DMEM media (Gibco) supplemented with 8% Fetal Bovine Serum (FBS), Sodium Pyruvate (NaPyr) and non-essential amino acids (NEAA) and passaged every 2-3 days. […]
Caov2 cells were co-transfected with the 7X-TK-ERE-TATA luciferase reporter gene (Nagel et al., Endocrinology 142(11): 4721-4728 (2001)) and expression constructs for either wild-type or mutant receptors using Fugene transfection reagent (Promega). […] Following 24 hours of treatment, cells were lysed and the luciferase and β-gal assays were performed as described previously (Norris et al., J Biol Chem 270(39): 22777-22782 (1995)) and the plates were read on the Fusion α-FP HT plate reader (PerkinElmer Life Sciences).
See Jeselsohn et al., Nature Reviews Clinical Oncology 12(10): 573-583 (2015); Jeselsohn et al., Clinical Cancer Research 20(7): 1757-1767 (2014); Robinson et al., Nature Genetics 45(12): 1446-1451(2013); Thomas and Gustafsson, Trends in Endocrinology and Metabolism 26(9): 467-476 (2015); and Toy et al., Nature Genetics 45(12): 1439-1445 (2013). The activity of these mutants was evaluated in a reconstituted estrogen response element (ERE)-luciferase reporter assay in Caov2 ovarian carcinoma cells and SKBR3 breast adenocarcinoma cells. […]

MCF7 WT [2] = test: Mammary intraductal (MIND) xenograft model, MCF7 WT; assay type: in vivo, NSG mice; details: MCF7 WT mice; fulvestrant 5 mg once per week subcutaneous
Experimental: (§1) MCF7 cells were engineered with CRISPR/Cas9 to express ERα with Y537S and D538G mutations. To mimic the natural environment of infiltrating ductal ERα^+ breast cancers, NSG™ mice were injected, via the nipple in the inguinal mammary glands, with three MCF7 cell variants: wild type MCF7 cells (MCF7 WT), MCF7 cells expressing Y537S mutant ERα (MCF7 Y537S), and MCF7 cells expressing D538G mutant ERα (MCF7 D538G), respectively. Prior to injection, the MCF7 cells were labeled with a luciferase reporter to monitor tumor growth in vivo using a Xenogen IVIS imager. […] FIG. 4 summarizes the experimental design.

MCF7 Y537S = test: Mammary intraductal (MIND) xenograft model, MCF7 Y537S; assay type: in vivo, NSG mice; details: MCF7 Y537S; fulvestrant 5 mg once per week; after 70 days
Experimental: as §1

MCF7 WT [3] = test: MIND xenograft model, combination therapies, MCF7 WT; assay type: in vivo, mice
Excerpt: MCF7 WT and MCF7 Y537S MIND xenograft model were generated as described in Example 3. […] FIG. 20 summarizes the experimental design.

SMILES: C[C@]12CC[C@@H]3c4ccc(O)cc4CC[C@H]3[C@@H]1CC[C@@H]2O [E2, 17-β estradiol]
- transcriptional activity, response to E2 [1]: not responsive to E2 activation

SMILES: C[C@]12CC[C@@H]3c4ccc(O)cc4C[C@@H](CCCCCCCCC[S+]([O-])CCCC(F)(F)C(F)(F)F)[C@H]3[C@@H]1CC[C@@H]2O (some centres unmarked) [fulvestrant]
- tumor growth monitored by total flux (MCF7 WT [2]): the most effective in inhibiting tumor growth
- lung metastasis (MCF7 Y537S): did not have a significant effect
- tumor growth monitored by total flux (MCF7 WT [3]; MCF7 WT mice, fulvestrant alone 5 mg/mouse once per week): the most effective in inhibiting tumor growth
- tumor growth by tumor volume (MCF7 WT [3]; MCF7 WT, day 36 and day 43 of treatment): the most effective

From patent publication US11974983B2 (Duke University, priority 2018, dated 2024)
